# Measured values: patent publication US20260232666A1, “COMPOSITIONS AND METHODS FOR INHIBITION OF RAS” (TheRas, Inc., priority 2023, published 2026)
# Columns and labels:
# pERK in NCI-H358 cells = experiment: Cell-based pERK HTRF assay (pERK inhibition in H358 cells); conditions: 30 min incubation
# In short: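 NCI-H358 cells were seeded at 4×10^4 cells/well in RPMI/10% FBS, then treated next day for 30 min at 0.25% DMSO (9-point, 3-fold series from 75 μM). Lysates were read by HTRF (d2/Eu cryptate antibody pair, 615 nm emission) after 4–24 h at room temperature to give pERK IC50.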
# [1] = biological target: T1, GDP-loaded KRAS4b (amino acids 1-169) G12C/C118S protein (Homo sapiens, UniProt P01116, C118S/G12C); experiment: Covalent cysteine 12 modification by MALDI-TOF MS, GDP-loaded KRAS G12C; format: binding; conditions: 15 minutes reaction time point
# T1 construct: KRAS4b (amino acids 1-169) G12C/C118S protein; made in house
# In short: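 1 μM GppNHp-, GTP- or GDP-loaded KRAS4b (1-169) G12C/C118S in 20 mM HEPES, 150 mM NaCl, 1 mM MgCl2, pH 7.3, at 1:2.5 protein:compound, room temperature in the dark. Percent Cys12 modification from MALDI-TOF peak heights (adduct/total protein), reported at 15 min.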
SMILES,"IC50 (pERK in NCI-H358 cells; Homo sapiens, NCI-H358, 0.5 h)",GDP-KRAS G12C percent of modification [1],IC50 (pERK in NCI-H358 cells)
C=CC(=O)N1CC[C@@H](N(C)c2nc(OC[C@@]34CCCN3C[C@H](F)C4)nc3c(F)c(-c4ccc(F)c5oc(N)c(C#N)c45)c(C(F)(F)F)cc23)[C@H]1C [Compound 90],< 0.1 µM,B (50≤percent of modification <70%),
C=CC(=O)N1CC[C@@H](N(CC)c2nc(OC[C@@]34CCCN3C[C@H](F)C4)nc3cc(-c4ccc(F)c5sc(N)c(C#N)c45)c(F)cc23)[C@@H]1CC [Compound 41],0.1 to 1 µM,A (percent of modification ≥70%),
C=CC(=O)N1CC[C@@H](N(C)c2nc(OC[C@@H]3C[C@@H](F)CN3C)nc3c(F)c(-c4ccc(F)c5sc(N)c(C#N)c45)c(C(F)(F)F)cc23)[C@H]1C [Compound 55],< 0.1 µM,A (percent of modification ≥70%),
C=CC(=O)N1CC[C@@H](N(C)c2nc(OC[C@@]34CCCN3C[C@H](F)C4)nc3cc(-c4ccc(F)c5sc(N)c(C#N)c45)c(C#N)cc23)[C@H]1CC [Compound 42],< 0.1 µM,A (percent of modification ≥70%),
C=CC(=O)N1CC[C@@H](N(CC)c2nc(OC[C@@H]3C[C@@H](OC)CN3C)nc3c(F)c(-c4ccc(F)c5sc(N)c(C#N)c45)c(Cl)cc23)[C@H]1C [Compound 73],< 0.1 µM,B (50≤percent of modification <70%),
C=CC(=O)N1CC[C@@H](N(C)c2nc(OCC3(CN4CCOCC4)CC3)nc3c(F)c(-c4ccc(F)c5sc(N)c(C#N)c45)c(C(F)(F)F)cc23)[C@H]1C [Compound 87],< 0.1 µM,C (10%≤percent of modification <50%),
C=CC(=O)N1CCC(N(C)c2nc(OC[C@@H]3CCCN3C3CC3)nc3c(F)c(-c4ccc(F)c5sc(N)c(C#N)c45)c(C(F)(F)F)cc23)[C@H]1C (stereo partly shown) [Compound 1],0.1 to 1 µM,B (50≤percent of modification <70%),
"C=CC(=O)N1CC[C@@H](N(C)c2nc(OC[C@@]34CCCN3C[C@H](F)C4)nc3c(F)c(-c4ccc(F)c5sc(N)c(C#N)c45)c(Cl)cc23)[C@@H]1C (atropisomer, axis not shown) [Compound 68]",< 0.1 µM,A (percent of modification ≥70%),
C=CC(=O)N1CC[C@@H](N(C)c2nc(N3CC(N(C)C)C3)nc3c(F)c(-c4ccc(F)c5sc(N)c(C#N)c45)c(C(F)(F)F)cc23)[C@H]1C [Compound 80],0.1 to 1 µM,B (50≤percent of modification <70%),
C=CC(=O)N1CC[C@@H](N(CC)c2nc(OC[C@@H]3CCCN3C)nc3c(F)c(-c4ccc(F)c5sc(N)c(C#N)c45)c(Cl)cc23)[C@H]1C [Compound 58],< 0.1 µM,A (percent of modification ≥70%),
C=CC(=O)N1CC[C@@H](N(C)c2nc(OC[C@@]34CCCN3C[C@H](F)C4)nc3c(F)c(-c4nc(N)cc(C)c4C(F)(F)F)c(C(F)(F)F)cc23)[C@@H]1C [Compound 91],< 0.1 µM,A (percent of modification ≥70%),
"C=CC(=O)N1CC[C@@H](N(C)c2nc(OC[C@@]34CCCN3C[C@H](F)C4)nc3c(F)c(-c4ccc(F)c5sc(N)c(C#N)c45)c(Cl)cc23)[C@@H]1C (atropisomer, axis not shown) [Compound 69]",,D (percent of modification <10%),0.1 to 1 µM
C=CC(=O)N1CC[C@@H](N(C)c2nc(OC[C@@H]3CC4(CC4)CN3CC)nc3c(F)c(-c4ccc(F)c5sc(N)c(C#N)c45)c(C(F)(F)F)cc23)[C@@H]1C [Compound 95],< 0.1 µM,A (percent of modification ≥70%),
"C=CC(=O)N1CC[C@@H](N(CC)c2nc(OC[C@@H]3C[C@@H](OC)CN3C)nc3c(F)c(-c4ccc(F)c5sc(N)c(C#N)c45)c(C(F)(F)F)cc23)[C@H]1C [Compound 45, 4-(4-(((2R,3R)-1-acryloyl-2-methylpyrrolidin-3-yl)(ethyl)amino)-8-fluoro-2-(((2S,4R)-4-methoxy-1-methylpyrrolidin-2-yl)methoxy)-6-(trifluoromethyl)quinazolin-7-yl)-2-amino-7-fluorobenzo[b]thiophene-3-carbonitrile]",< 0.1 µM,A (percent of modification ≥70%),
